One assay deals with iWT cardiomyocytes. In words: Traction force microscopy of paced engineered cardiomyocytes (force generation, beat rate), iWT. Format: cell-based, human. The conditions noted are these: wild-type cells, FIGS. 93-95. An excerpt: FIG. 93 is a set of graphs showing force generation of engineered cardiomyocytes treated with a PI3K inhibitor (left) or PI3K activator (right). Relative change in force generation between iWT (black) and G296S (grey) cardiomyocytes after inhibition (circle) or activation (triangle) of P13K signaling. Traction force microscopy (TFM) measurements of CMs responding accurately to 1 Hz pacing. Data are mean±sem, *,p<0.05, **,p<0.005, ***p<0.0005 (Mann-Whitney test).
FIG. 94 is a schematic illustrating the postulated protein-protein interaction in wild-type (top) and G296S mutant (bottom) cardiomyocytes. Beat rate measurements between iWT (black) and G296S (grey) cardiomyocytes after inhibition (circle) or activation (triangle) of P13K signaling. TFM measurements of cardiomyocytes responding accurately to 1 Hz pacing. Data are mean±sem, *,p<0.05, ** p<0.005, ***p⋅<0.0005 (Mann-Whitney test).
A “scale-free” network (Barabasl and Albert, ⋅1999) of 716 nodes connected by 2,353 edges with an average 6.6 neighbors and path length of 4.3 (FIG. 90). Nodes were connected by edges representing physical (protein-protein) or functional (genetic, co-expression, co-occurrence) interactions. At least 5 sub-networks connected through 20 regulatory “hubs” were identified. […]

Assay [1] deals with hiPS cell-derived cardiomyocytes. In words: Calcium flux measurements of hiPS cell-derived cardiomyocytes. Particulars: isoproterenol followed by carbachol, FIG. 17. Format: cell-based, human. An excerpt: A step-wise differentiation protocol was used to generate purified cardiomyocytes from the above-described iPS cell lines (FIG. 12) (Lian et al, 2012; Tohyama et al.,2013). […] The iPS cardiomyocytes spontaneously contracted, expressed high levels of sarcomeric and myofibril markers, and had membrane electrophysiology and gene expressions similar to human cardiomyocytes; 30% were binucleated (FIGS. 15 and 16). […] The protocol thus generated functional human cardiomyocytes suitable for deeper interrogation of cell identity and function.
In general terms: A change in cytosolic calcium serves as a functional read-out for many receptors and channels.

In the case of `O=c1cc(N2CCOCC2)oc2c(-c3ccccc3)cccc12` [LY294002], the beat rates result in the assay with iWT cardiomyocytes is “no effect”.

`CC(C)NCC(O)c1ccc(O)c(O)c1` (stereo not drawn) [isoproterenol]: in assay [1], the calcium flux response result is listed as “expected response”.

As for `C[N+](C)(C)CCOC(N)=O` [carbachol], the calcium flux response entry in assay [1] is recorded as “expected response”.
